Reference: ChEMBL document CHEMBL3244130, “A manual method for applying the Hansch approach to drug design” (J Med Chem, 1977)

Species on record: Oryctolagus cuniculus
Assay: Reversible inhibition of guanine deaminase in rabbit liver at pH 7.4
Details: not given

Structure (SMILES) | log(1/C)
CCOc1ccc(-n2cnc3c(O)nc(N)nc32)cc1 | 7.01
Nc1nc(O)c2ncn(-c3ccc(OCCCc4ccccc4)cc3)c2n1 | 7.25

System: not listed separately
Assay: Inhibition of alcohol dehydrogenase (unknown origin) assessed as dissociation constant for the complex of enzyme and DPNH
Format: protein assay
Details: Homo sapiens

Structure (SMILES) | log K
COc1ccc(C(N)=O)cc1 | -2.2
NC(=O)c1ccc(Cl)cc1 | -1.93
CC(C)c1ccc(C(N)=O)cc1 | -1.7
Cc1ccc(C(N)=O)cc1 | -1.78
NC(=O)c1ccccc1 | -2.72

System: not listed separately
Assay: Inhibition of carbonic anhydrase (unknown origin)
Details: Homo sapiens

Structure (SMILES) | log1/Ki
NS(=O)(=O)c1ccccc1 | 0.22
Cc1ccc(S(N)(=O)=O)cc1 | 0.42
NS(=O)(=O)c1ccc(Cl)cc1 | 0.72
NS(=O)(=O)c1ccc([N+](=O)[O-])c(C(F)(F)F)c1 | 1.85
COc1ccc(S(N)(=O)=O)cc1 | 0.35
NS(=O)(=O)c1ccc(Cl)c(Cl)c1 | 1.4

System: Escherichia coli
Assay: Antibacterial activity against Escherichia coli
Format: functional
Details: not given

Structure (SMILES) | log(1/MIC)
COc1ccc(C(=O)NS(=O)(=O)c2ccc(N)cc2)cc1C | 5.25
Nc1ccc(S(=O)(=O)NC(=O)c2cccc(C(F)(F)F)c2)cc1 | 4.65
CCc1ccc(C(=O)NS(=O)(=O)c2ccc(N)cc2)cc1 | 5.62
Nc1ccc(S(=O)(=O)NC(=O)c2ccccc2)cc1 [SULFABENZAMIDE] | 5.25
N#Cc1ccc(C(=O)NS(=O)(=O)c2ccc(N)cc2)cc1 | 4.05
CCCc1ccc(C(=O)NS(=O)(=O)c2ccc(N)cc2)cc1 | 5.18
COc1ccc(C(=O)NS(=O)(=O)c2ccc(N)cc2)cc1 | 5.4
Nc1ccc(S(=O)(=O)NC(=O)c2ccc([N+](=O)[O-])cc2)cc1 | 4.5
Cc1ccc(C(=O)NS(=O)(=O)c2ccc(N)cc2)cc1 | 5.4
CC(C)c1ccc(C(=O)NS(=O)(=O)c2ccc(N)cc2)cc1 | 5.4
Nc1ccc(S(=O)(=O)NC(=O)c2ccc(Cl)cc2)cc1 | 5.1
Cc1cccc(C(=O)NS(=O)(=O)c2ccc(N)cc2)c1 | 5.4

Species on record: Rattus norvegicus
Assay: Hypoglycemic activity in rat assessed as change in blood glucose level after 4 hrs
Format: functional
Design: concentration or dose not given beside the values
Details: not given

Structure (SMILES) | Activity
O=C(C=P(c1ccccc1)(c1ccccc1)c1ccccc1)c1cccc(Cl)c1 | -42%
Cc1ccc(C(=O)C=P(c2ccccc2)(c2ccccc2)c2ccccc2)cc1 | -2%
COc1ccc(C(=O)C=P(c2ccccc2)(c2ccccc2)c2ccccc2)cc1 | -4%
Cc1cccc(C(=O)C=P(c2ccccc2)(c2ccccc2)c2ccccc2)c1 | -30%
O=C(C=P(c1ccccc1)(c1ccccc1)c1ccccc1)c1ccc(Cl)c(Cl)c1 | 2%
O=C(C=P(c1ccccc1)(c1ccccc1)c1ccccc1)c1ccc(Cl)cc1 | -21%
COc1cccc(C(=O)C=P(c2ccccc2)(c2ccccc2)c2ccccc2)c1 | -42%
O=C(C=P(c1ccccc1)(c1ccccc1)c1ccccc1)c1cccc(C(F)(F)F)c1 | -22%
O=C(C=P(c1ccccc1)(c1ccccc1)c1ccccc1)c1ccccc1 | -24%

System: Plasma
Assay: Fibrinolytic activity in human plasma assessed as dissolution of standard clot measured with in 24 hrs
Format: functional
Details: not given

Structure (SMILES) | log(1/C)
COc1ccc(C#C[C@H]2C[C@@H]2C(=O)O)cc1 | 1.7
O=C(O)[C@H]1C[C@@H]1C#Cc1ccc(Cl)cc1 | 1.92
Cc1ccc(C#C[C@H]2C[C@@H]2C(=O)O)cc1 | 1.82
O=C(O)[C@H]1C[C@@H]1C#Cc1ccccc1 | 1.7

System: not listed separately
Assay: Uncoupling activity of oxidative phosphorylation in rat liver mitochondria
Format: functional
Details: not given

Structure (SMILES) | log(1/C50)
Cc1ccc(C2C(=O)c3ccccc3C2=O)cc1 | 4.1
COc1ccc(C2C(=O)c3ccccc3C2=O)cc1 | 3.75
CC(C)(C)c1ccc(C2C(=O)c3ccccc3C2=O)cc1 | 5.03
CC(C)c1ccc(C2C(=O)c3ccccc3C2=O)cc1 | 4.87
O=C1c2ccccc2C(=O)C1c1ccccc1 | 3.74
O=C1c2ccccc2C(=O)C1c1ccc(Cl)cc1 | 4.2

System: Rattus norvegicus
Assay: Antiinflammatory activity in rat pleurisy model assessed as 10X ratio of mean pleural exudate volumes at 1 mmol/kg, po relative to 1 mmol/kg aspirin
Format: functional
Details: not given

Structure (SMILES) | Activity_index
Cc1ccc(-c2nnn(CCC(=O)O)n2)cc1 | 3.1
O=C(O)CCn1nnc(-c2cc(Cl)cc(Cl)c2)n1 | 11.2
O=C(O)CCn1nnc(-c2ccccc2)n1 | 8.2
Nc1cccc(-c2nnn(CCC(=O)O)n2)c1 | 0.3
O=C(O)CCn1nnc(-c2cccc(Br)c2)n1 | 11.2
O=C(O)CCn1nnc(-c2cccc(C(F)(F)F)c2)n1 | 5.7
Cc1cccc(-c2nnn(CCC(=O)O)n2)c1 | 7.9
O=C(O)CCn1nnc(-c2ccc(Cl)cc2)n1 | 5.9
O=C(O)CCn1nnc(-c2ccc(Cl)c(Cl)c2)n1 | 6.2
COc1ccc(-c2nnn(CCC(=O)O)n2)cc1 | 4.9
O=C(O)CCn1nnc(-c2cccc(Cl)c2)n1 | 11.2
